Measured values as given in patent publication US5684151A, “1-arylsulphonyl, arylcarbonyl and 1-arylphosphonyl-3-phenyl-1,4,5,6-tetrahydropyridazines” (priority 1995, dated 1997).
Like-named read-outs stand apart in the source and are kept apart here.

Experiments:
[1] = system: Human T47D breast carcinoma cells; experiment: Ex vivo progestational test (T47D proliferation); format: cell-based; conditions: SC200, 3H-thymidine incorporation
Method: The progestational activity of the compounds was accessed by their ability to stimulate proliferation of human breast carcinoma cells. Proliferation was measured as the ability to stimulate ^3 H-thymidine incorporation into these cells in vitro. Human T47D breast carcinoma cells (American Type Tissue Collection #133-HTB) were maintained in media consisting or RPMI 1640 supplemented with 10% fetal bovine serum, 10 ug/ml insulin, 10 U/ml pennicillin, 100 ug/ml streptomycin, and 2 mM L-glutamine. Monolayer cell cultures were trypsinized and washed in assay media consisting of phenol red-free RPMI 1640 supplemented with 5% charcoal-stripped, fetal bovine serum, and the other ingredients listed above. Cells were then plated in a 96-well plate. After a 48-hour incubation period at 37° C., the conditioned media was removed and replaced with fresh media containing test compounds in DMSO (0.1% DMSO final concentration). The cell cultures were incubated for 18 to 20 hours at 37° C. ^3 H-thymidine was then added to each well and the cell cultures were incubated at 37° C. for an additional 4 hours. Labelling was stopped by addition of un labelled thymidine. The cultures were washed twice, trypsinized and then harvested onto a filter mat. Incorporated ^3 -H-thymidine was measured by liquid scintillation counting. Data was expressed as a percent stimulation above control level which was set at 100%. An SC200 value was calculated as the concentration of test material needed to stimulate ^3 H-thymidine incorporation 200% of control.
Aspects of the application of the procedure used are described in the following: C. Christensen, D. Gunter, D. Saunders and V. Malviya, Gynecol. Oncol., 28, 25 (1987); J. Puzas, R. Drivdahl, G. Howard and D. Baylink, Proc. Soc. Exp. Biol. Med., 166, 113 (1981); and I. Keydar, L. Chen, S. Karby, F. Weiss, J. Delarea, M. Raduy, S. Chaitcik and H. Brenner, Eur. J. Cancer, 15, 659 (1979)

[2] = system: mouse (MC3T3-E1) and human (TE-85) osteoblast-line cells; format: cell-based
Summary of the method: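 MC3T3-E1 or TE-85 cells were plated overnight in DMEM/25 mM HEPES/10% FBS and then preincubated 24 h in 0.1% FBS. Compounds were added for 20 h, followed by a 4 h pulse of 0.4 μCi ^3H-thymidine. Incorporated radioactivity served as the proliferation index, expressed as % of control (control = 100%).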

[3] = target: T1, progestin receptor from rabbit uterus (Oryctolagus cuniculus, UniProt P06186); experiment: Progestin receptor binding (3H-R5020 displacement); conditions: rabbit uterine cytosol, 4° C., 18 h, read-out: IC50: Binding affinity for the progestin receptor from rabbit uterus
T1 construct: Cytosolic progestin receptor were obtained by mixing rabbit uterine tissue with a Tris buffer; from tissue; host or cells: rabbit uterus cytosol
T1 sequence (P06186 whole entry): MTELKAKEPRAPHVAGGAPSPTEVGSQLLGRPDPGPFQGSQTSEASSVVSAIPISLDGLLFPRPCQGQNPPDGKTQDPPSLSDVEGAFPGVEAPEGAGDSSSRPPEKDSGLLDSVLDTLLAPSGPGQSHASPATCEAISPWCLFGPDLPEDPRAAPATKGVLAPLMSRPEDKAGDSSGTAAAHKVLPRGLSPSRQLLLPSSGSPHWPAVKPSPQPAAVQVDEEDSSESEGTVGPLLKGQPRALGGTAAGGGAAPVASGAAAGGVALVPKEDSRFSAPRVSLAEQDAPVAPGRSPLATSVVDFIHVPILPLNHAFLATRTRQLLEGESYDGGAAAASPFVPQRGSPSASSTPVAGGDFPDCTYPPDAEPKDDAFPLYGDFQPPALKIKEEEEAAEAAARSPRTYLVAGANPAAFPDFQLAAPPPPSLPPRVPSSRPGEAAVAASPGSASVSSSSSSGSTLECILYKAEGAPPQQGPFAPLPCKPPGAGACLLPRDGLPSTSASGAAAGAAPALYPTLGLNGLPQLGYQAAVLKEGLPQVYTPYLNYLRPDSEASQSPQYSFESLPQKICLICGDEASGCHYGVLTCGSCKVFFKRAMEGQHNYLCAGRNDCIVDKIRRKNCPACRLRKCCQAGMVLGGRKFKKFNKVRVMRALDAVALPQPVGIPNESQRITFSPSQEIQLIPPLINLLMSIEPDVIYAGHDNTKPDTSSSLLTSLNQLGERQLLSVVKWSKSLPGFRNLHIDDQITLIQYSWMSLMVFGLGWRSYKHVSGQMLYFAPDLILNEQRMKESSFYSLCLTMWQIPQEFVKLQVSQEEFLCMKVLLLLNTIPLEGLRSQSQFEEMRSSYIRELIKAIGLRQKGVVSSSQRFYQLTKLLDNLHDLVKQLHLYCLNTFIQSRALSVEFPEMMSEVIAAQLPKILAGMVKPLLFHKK
Summary of the method: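 Rabbit uterine cytosol in Tris buffer pH 7.4 with EDTA, DTT and molybdate was incubated with 3H-R5020 and test compound (5% DMSO final) at 4 °C for about 18 h. Bound ligand was separated with dextran-coated charcoal and counted by scintillation; IC50 is 50% radioligand displacement, with nonspecific binding defined by excess unlabelled ligand.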

[4] = system: rabbit endometrium; experiment: In vivo progestational test (Clauberg Test); design: species or system rabbit (immature New Zealand White female); key: Active in Clauberg Assay; Active in McGinty Assay; conditions: oral or parenteral, daily for five days
Method: Progestational activity was also measured in vivo by the abiity to stimulate the rabbit endometrium after either oral or parenteral administration.
[…]. Starting on the 7th day, the rabbits were given the test material daily for five days. The rabbits were sacrificed approximately 24 hours after the last administration, and the uteri were excised, trimmed and weighed. Portions of both uterine horns were fixed in 10% neutral formalin, sectioned at 6μ and stained with hematoxylin and eosin. Progestational activity was assessed as described above for the McGinty Test.

| Structure (SMILES) | T47D: Concentration to elicit a 200% increase in T47D Human breast cell proliferation [1] | Osteoblast Cell Proliferation, 3H-thymidine incorporation vs control (100%) ([2]; 10^-6) | Osteoblast Cell Proliferation, 3H-thymidine incorporation vs control (100%) ([2]; 10^-7) | Osteoblast Cell Proliferation, 3H-thymidine incorporation vs control (100%) ([2]; 10^-8) | Osteoblast Cell Proliferation, 3H-thymidine incorporation vs control (100%) ([2]; 10^-9) | Osteoblast Cell Proliferation, 3H-thymidine incorporation vs control (100%) ([2]; 10^-10) | IC50 [3] | In-vivo: Active in Clauberg Assay [4] |
| --- | --- | --- | --- | --- | --- | --- | --- | --- |
| O=S(=O)(c1cccc2ccccc12)N1CCCC(c2ccc(Cl)cc2)=N1 [Compound 15] | 10000 | 94% | 108% | 114% | 123% | 123% |  |  |
| O=S(=O)(c1cc(Cl)ccc1Cl)N1CCCC(c2ccc(Cl)c(Cl)c2)=N1 [Compound 22, 3-(3,4-dichlorophenyl)-1-(2,5-dichlorobenzenesulphonyl)-1,4,5,6-tetrahydropyridazine] | 10000 | 86% | 78% | 66% | 59% | 40% | 0.54 nM |  |
| CCCCc1ccc(C2=NN(S(=O)(=O)c3cc(Cl)ccc3Cl)CCC2)cc1 [Compound 69] | 10000 |  |  |  |  |  | 10000 nM |  |
| CCCCc1ccc(C2=NN(S(=O)(=O)c3ccc(Cl)cc3)CCC2)cc1 [Compound 73] | 10000 |  |  |  |  |  | 10000 nM |  |
| CCCCc1ccc(C2=NN(S(=O)(=O)c3ccc(C)cc3)CCC2)cc1 [Compound 74] | 10000 |  |  |  |  |  | 10000 nM |  |
| O=S(=O)(c1cc(Cl)ccc1Cl)N1CCCC(c2ccc(Cl)c(C(F)(F)F)c2)=N1 [Compound 79, 3-(4-chloro-3-trifluoromethylphenyl)-1-(2,5-dichlorobenzenesulphonyl)-1,4,5,6-tetrahydropyridazine] | 10000 |  |  |  |  |  | 0.9 nM |  |
| O=S(=O)(c1ccccc1)N1CCCC(c2cccc(Cl)c2)=N1 [Compound 95] | 10000 |  |  |  |  |  | 10.2 nM |  |
| O=S(=O)(c1ccc(C(F)(F)F)cc1)N1CCCC(c2ccc(Cl)c(Cl)c2)=N1 [Compound 97, 3-(3,4-dichlorophenyl)-1-(4-trifluoromethylbenzenesulphonyl)-1,4,5,6-tetrahydropyridazine] | 92 |  |  |  |  |  | 0.99 nM | C |
| O=S(=O)(c1cc(Cl)cc(Cl)c1)N1CCCC(c2ccc(Cl)c(Cl)c2)=N1 [Compound 104] | 76 |  |  |  |  |  | 0.85 nM |  |
| O=S(=O)(c1cccc(Cl)c1Cl)N1CCCC(c2ccc(Cl)c(Cl)c2)=N1 [Compound 105, 3-(3,4-dichlorophenyl)-1-(2,3-dichlorobenzenesulphonyl)-1,4,5,6-tetrahydropyridazine] | 1070 |  |  |  |  |  | 1.87 nM |  |
| O=S(=O)(c1cccc(Cl)c1)N1CCCC(c2ccc(Cl)c(Cl)c2)=N1 [Compound 109] | 1620 |  |  |  |  |  | 1.09 nM |  |
| O=[N+]([O-])c1cc(S(=O)(=O)N2CCCC(c3ccc(Cl)c(Cl)c3)=N2)ccc1Cl [Compound 111] | 10000 |  |  |  |  |  | 16 nM |  |
| O=S(=O)(c1ccc(Br)cc1)N1CCCC(c2ccc(Cl)c(C(F)(F)F)c2)=N1 [Compound 115, 3-(4-chloro-3-trifluoromethylphenyl)-1-(4-bromobenzenesulphonyl)-1,4,5,6-tetrahydropyridazine] | 72 |  |  |  |  |  | 2.09 nM | C |
| O=S(=O)(c1ccc(I)cc1)N1CCCC(c2ccc3ccccc3c2)=N1 [Compound 119, 3-(naphth-2-yl)-1-(4-iodobenzenesulphonyl)-1,4,5,6-tetrahydropyridazine] | 868 |  |  |  |  |  | 2.53 nM |  |
| Cc1ccc(S(=O)(=O)N2CCCC(c3ccc4ccccc4c3)=N2)cc1 [Compound 120] | 831 |  |  |  |  |  | 13.3 nM |  |
| O=S(=O)(c1ccc(C(F)(F)F)cc1)N1CCCC(c2ccc(Cl)c(C(F)(F)F)c2)=N1 [Compound 125, 3-(4-chloro-3-trifluoromethylphenyl)-1-(4-trifluoromethylbenzenesulphonyl)-1,4,5,6-tetrahydropyridazine] | 166 |  |  |  |  |  | 6.66 nM | C |
| O=S(=O)(/C=C/c1ccc(Cl)cc1)N1CCCC(c2ccc(Cl)c(Cl)c2)=N1 [Compound 170] | 4000 | 68% | 98% | 108% | 108% | 108% | 2.15 nM |  |
| O=S(=O)(/C=C/c1ccccc1)N1CCCC(c2ccc3ccccc3c2)=N1 [Compound 174] | 10000 |  |  |  |  |  | 22.8 nM |  |
| O=S(=O)(/C=C/c1ccc(Cl)cc1)N1CCCC(c2ccc(Cl)c(C(F)(F)F)c2)=N1 [Compound 178] | 164 |  |  |  |  |  | 5.18 nM |  |
| O=C(c1cc(Cl)cc(Cl)c1)N1CCCC(c2ccc(Cl)c(Cl)c2)=N1 [Compound 219] | 10000 | 144% | 171% | 141% | 180% | 178% | 946 nM |  |
| O=S(=O)(c1ccc(I)cc1)N1CCCC(c2cc(Br)c(Br)s2)=N1 [Compound 278, 3-(4,5-Dibromo-2-thienyl)-1-(4-iodobenzenesulfonyl)-1,4,5,6-tetrahydropyridazine] | 85 |  |  |  |  |  | 1 nM | C |
| CC1CCC(c2ccc(Cl)c(C(F)(F)F)c2)=NN1S(=O)(=O)c1ccc(I)cc1 (centres unmarked) [Compound 281, 1-(4-Iodobenzenesulfonyl)-3-(3-trifluoromethyl-4-chlorophenyl)-6-methyl-1,4,5,6-tetrahydropyridazine] | 10 |  |  |  |  |  | 0.02 nM | C |
| CC1CCC(c2ccc(Cl)c(Cl)c2)=NN1S(=O)(=O)c1ccc(I)cc1 (centres unmarked) [Compound 282, 1-(4Iodobenzenesulfonyl)-3-(3,4-dichlorophenyl)-6-methyl 1,4,5,6-tetrahydropyridazine] | 10.5 |  |  |  |  |  | 0.2 nM | C |
